# Columns and labels:
# [1] = Observation of binding form with UCN by TEM and SEM; conditions: TEM / SEM after washing off unbound
# From the text: The binding forms of RE-1 short peptide and REOB-1 phage with UCN were observed using a transmission electron microscope. The excess unbound polypeptides and phages were washed off from the complex of RE-1 and UCN. The complex was stained with uranium acetate (pH 6.7), and placed on a copper mesh coated with carbon film. A transmission electron microscope TEM (200 kV) (JEM-2100F, JEOL, Japan) was used for observation and imaging (FIG. 5A and FIG. 5B).
# The binding form of RE-1 peptide to UCN was observed under a scanning electron microscope. The excess unbound polypeptides were washed off from the complex of RE-1 and UCN. The complex was placed on a copper mesh. A scanning electron microscope SEM (15 kV) (JEOL JSM-6700F, JEOL, Japan) was used for observation and imaging (FIG. 5C).
# [2] = Sedimentation / suspension time-dynamics curve of UCP (UV 500 nm); format: physicochemical; conditions: standing for 120 min; UCP with or without RE-1 coating
# Procedure: 3 mg of UCN was mixed with 1.5 mg of RE-1 or its analogues RE-2, RE-3, or RE-5 as well as PEG, and the binding between them was performed according to a binding method. The excess and unbound RE-1 was washed off. The resultant precipitate was resuspended in 3 mL water, sonicated for 1 min, and then placed into a UV detection cell (X72053, Alpha Laboratories Ltd, UK). Observation was made using a UV spectrophotometer (DU-640, Beckman, USA) at an absorption wavelength of 500 nm for 120 min to obtain a time-dynamics curve.
# The process described above was repeated except that 3 mg UCP and 500 μg RE-1 or its analogues RE-2, RE-3, RE-4, RE-5, RE-6, RE-7, RE-8, RE-9, or RE-10 and AP-1 were used. A time-dynamics curve was obtained.
# HeLa cells [3] = assay: Diffusibility / adherence on coverslip with cells facing upward or downward; format: cell-based
# Procedure: HeLa cells were cultured on a coverslip (22 mm×22 mm), which was then placed into a 6-well plate with the cells facing upward or downward, and the coverslip was supported by a sterilized glass cube (2 mm×2 mm×2 mm). Then, 4 mL DMEM medium (Gibco) containing the rare-earth upconversion nanophosphors (UCN, UCP) with or without RE-1 coating was slowly poured into the 6-well plate, such that the cells were fully immersed in the medium, and the coverslip is just located at the middle of the height of the liquid. The cells were placed into a cell incubator at 37° C. for 2 hr, and then washed with PBS 3 times. The UCNs adhered to the surfaces of the cells were observed under a fluorescence microscope (Olympus IX71, Olympus, Japan) equipped with a 980-nm infrared laser (MDL-980 nm 1 W, Changchun New Industries Optoelectronics Tech. Co., Ltd, China).
# LC3 II in HeLa cells = assay: Western blotting of LC3 in HeLa cells; format: cell-based
# Procedure: Western blotting is performed as follows: After an incubation of 24 h, the cells are collected and lysed with lysis buffer (purchased from Beyotime Biotechnology, China). The lysate is boiled in boiling water for 10 min, subjected to 15% SDS-PAGE, and then transferred to nylon membrane (purchased from Amersham Inc.) by a wet transfer. In the Western blotting, Anti-LC3 (Light Chain 3 Protein Antibody, purchased from Novus Inc., Catalog #: NB 100-2220) is used as primary antibody; GAPDH (purchased from Millipore Inc.) is used as internal reference; and Horseradish peroxidase (HRP) conjugated goat anti-rabbit IgG (H+L) (Goat Anti-Rabbit IgG (H+L), HRP Conjugate) (purchased from Promega Inc.) is used as secondary antibody.
# HeLa cells were inoculated into a 24-well cell culturing plate at a density of about 3-5×10^4 cells/well, and cultured overnight for further use. At first, the medium was replaced with fresh DMEM medium, and then 100 μg/mL UCN or UCN+RE-1 was added. An equal volume of PBS was used as blank. A mixture of 100 μg/mL UCN and 10 mg/mL PEG was used as negative control. 100 mM trehalose was used as positive control. Then, western blotting assay was performed.
# HeLa cells were inoculated into a 24-well cell culturing plate at a density of about 3-5×10^4 cells/well, and cultured overnight for further use. At first, the medium was replaced with fresh DMEM medium, and then 100 μg/mL UCP or UCP+RE-1 was added. An equal volume of PBS was used as blank. A mixture of 100 μg/mL UCP+AP-1 and a mixture of 400 μg/mL TiO2+AP-1 were used as negative control. 400 μg/mL TiO2 was used as positive control. Then, western blotting assay was performed.
# HeLa cells [4] = assay: Cytotoxicity of UCN or UCP with or without RE-1 (MTT, PI staining); format: cell-based; conditions: 10-1000 μg/mL, 24 hr, MTT and PI staining
# Procedure: (§1) MTT cell vitality assay is performed as follows: The cells to which samples have been added are cultured for 24 hr, and then 0.5 mg/mL MTT solution is added and cultured for 4 hr. The MTT solution in the well is discharged, and then 200 μL DMSO is added, followed by gently shaking the plate on a shaking table for 10 min. Detection is performed using microplate reader (ELX800, purchased from BIO-TEK) at a wavelength of 570 nm.
# (§2) PI staining assay is performed as follows: The cells to which samples have been added are cultured for 24 hr, and then to the culture Hoechst 33342 (10 mM, purchased from Sigma, USA, Catalog #: B2261) and PI (Propidium Iodide) (10 mM, purchased from Beyotime Biotechnology, Catalog #: ST511) are added for 10 min of staining. Then, the cells are detected and photographed under a fluorescence microscope (Olympus IX71, purchased from Olympus). The number of the cells counted by this assay was 500.
# HeLa cells were inoculated into a 96-well cell culturing plate at a density of about 1-2×10^4 cells/well, and cultured overnight for further use. At first, the medium was replaced with fresh DMEM medium, and then 10 μg/mL, 100 μg/mL, 250 μg/mL, 500 μg/mL, or 1000 μg/mL of UCN or UCP coated, with or without RE-1, were added, respectively. After culturing for 24 hr, MTT cell viability assay and PI staining were performed to detect the mortality of the cells.
# HeLa cells [5] = assay: Effect of RE-1 analogues on cytotoxicity induced by UCN, UCP (MTT, PI staining); format: cell-based; conditions: 1 mg/mL, 24 hr
# Procedure: as §1, §2
# HeLa cells were inoculated into 96-well cell culturing plate at a density of about 1-2×10^4 cells/well, and cultured overnight for further use. At first, the medium was replaced with fresh DMEM medium, and then 1 mg/mL UCN, UCP, UCN+PEG (containing 10 mg PEG), UCN+RE-1, UCP, UCP+RE-1, UCN+RE-2, UCN+RE-3, UCN+RE-5, UCP+RE-2, UCP+RE-3, or UCP+RE-5 were added, respectively. After culturing for 24 hr, MTT cell viability assay and PI staining were performed to detect the mortality of the cells.
sequence,measurement,setting,value
"ACTARSPWICG [RE-1, RE-0 with terminal amino acids A and G added]",binding form on the surface of UCN,[1],form a stable peptide coating on the surface of UCN
same,suspension / sedimentation of UCP in water,[2],still in suspension
same,"amount of nanophosphors (UCN, UCP) coated with RE-1 adhered to the cell surfaces","HeLa cells [3]; cell-facing-upward group, 37° C., 2 hr",significantly reduced
same,"diffusibility of the rare-earth upconversion nanophosphors (UCN, UCP) in solution",HeLa cells [3]; cells facing upward versus downward,reduced the diffusibility
same,effect of RE-1 coating of UCN and UCP on LC3 II,LC3 II in HeLa cells; 100 μg/mL UCN+RE-1 or UCP+RE-1,significantly prevented the increase of LC3 II
same,inhibition of cell autophagy induced by TiO2,LC3 II in HeLa cells; 400 μg/mL TiO2,could not inhibit
same,"effect of coating with RE-1 on cytotoxicity of UCN, UCP",HeLa cells [4],significantly reduced cytotoxicity
same,inhibitory effect of coating on cytotoxicity induced by UCN and UCP,HeLa cells [5],RE-1>RE-3>RE-5

# Reference: patent US9540418B2, “Polypeptide specifically binding to rare earth nanoparticles and use thereof” (University of Science and Technology of China, priority 2012, dated 2017)
